ChEMBL document CHEMBL1201862, “PubChem BioAssay data set” (2004)
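Assay format: 96-well plates, 48-hour exposure. GI50 = concentration required for 50% inhibition of growth.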 Activity calls are given as the source filed them. No stated cut-off is given here; in the data, active = GI50 up to about 1.1 µM and inactive = higher.

What was measured:
Test in all cases: inhibition of tumour cell growth, NCI panel, 48 h
SN12C = system: SN12C
UACC-62 = system: UACC-62
SF-539 = system: SF-539
MCF7 = system: MCF7
MDA-MB-435 = system: MDA-MB-435
OVCAR-3 = system: OVCAR-3
SR = system: SR
HCT-116 = system: HCT-116
HL-60 = system: HL-60
EKVX = system: EKVX
KM12 = system: KM12
TK-10 = system: TK-10
SF-268 = system: SF-268
HOP-62 = system: HOP-62
NCI-H226 = system: NCI-H226
HCT-15 = system: HCT-15
IGROV-1 = system: IGROV-1
MOLT-4 = system: MOLT-4
SW-620 = system: SW-620
ACHN = system: ACHN

## CC(C)=CC(=O)O[C@@H]1CC(C)(C)CC2C3=CCC4[C@]56CC[C@](O)(OC5)C(C)(C)C6CC[C@@]4(C)C3(C)CC[C@]21C(=O)O (stereo not given in full)
SN12C
  GI50: 53.2 µM (inactive)
UACC-62
  GI50: > 100 µM (inactive)
SF-539
  GI50: 38.5 µM (inactive)
MCF7
  GI50: > 100 µM (inactive)
MDA-MB-435
  GI50: > 100 µM (inactive)
OVCAR-3
  GI50: 31.3 µM (inactive)
SR
  GI50: 61 µM (inactive)
HCT-116
  GI50: 38 µM (inactive)
HL-60
  GI50: 44.2 µM (inactive)
EKVX
  GI50: > 100 µM (inactive)
KM12
  GI50: 33 µM (inactive)
TK-10
  GI50: 63.1 µM (inactive)
SF-268
  GI50: 74.1 µM (inactive)
HOP-62
  GI50: 64.3 µM (inactive)
NCI-H226
  GI50: 34.2 µM (inactive)
HCT-15
  GI50: 31.4 µM
IGROV-1
  GI50: 31.8 µM (inactive)
MOLT-4
  GI50: 55.2 µM (inactive)
SW-620
  GI50: > 100 µM (inactive)
ACHN
  GI50: 25.8 µM (inactive)

## CC(C)=CCc1c(O)c(CC=C(C)C)c2oc3c(c(=O)c2c1O)C(C=C(C)C)Oc1cc(O)ccc1-3 (stereo not given)
SN12C
  GI50: 6.9 µM (inactive)
UACC-62
  GI50: 6.37 µM (inactive)
SF-539
  GI50: 11.7 µM (inactive)
MCF7
  GI50: 4.98 µM (inactive)
MDA-MB-435
  GI50: 3.53 µM (inactive)
OVCAR-3
  GI50: 4.18 µM (inactive)
SR
  GI50: 2.49 µM (inactive)
HCT-116
  GI50: 3.74 µM (inactive)
HL-60
  GI50: 5.85 µM (inactive)
EKVX
  GI50: 3.88 µM (inactive)
KM12
  GI50: 2.94 µM (inactive)
TK-10
  GI50: 4.17 µM (inactive)
SF-268
  GI50: 6.07 µM (inactive)
HOP-62
  GI50: 12.5 µM (inactive)
NCI-H226
  GI50: 20.5 µM (inactive)
HCT-15
  GI50: 5.05 µM
IGROV-1
  GI50: 7.53 µM (inactive)
MOLT-4
  GI50: 3.84 µM (inactive)
SW-620
  GI50: 4.17 µM (inactive)
ACHN
  GI50: 4.49 µM (inactive)

## Oc1cc(Br)cc2cc(Br)cnc12
SN12C
  GI50: 3.62 µM (inactive)
UACC-62
  GI50: 2.05 µM (inactive)
SF-539
  GI50: 3.78 µM (inactive)
MCF7
  GI50: 5.35 µM (inactive)
MDA-MB-435
  GI50: 3.44 µM (inactive)
OVCAR-3
  GI50: 1.58 µM (inactive)
SR
  GI50: 1.26 µM (inactive)
HCT-116
  GI50: 2.11 µM (inactive)
HL-60
  GI50: 0.22 µM (active)
EKVX
  GI50: 3.85 µM (inactive)
KM12
  GI50: 5.38 µM (inactive)
TK-10
  GI50: 43 µM (inactive)
SF-268
  GI50: 1.1 µM (active)
HOP-62
  GI50: 12.3 µM (inactive)
NCI-H226
  GI50: 15.3 µM (inactive)
HCT-15
  GI50: 1.13 µM
IGROV-1
  GI50: 1.14 µM (inactive)
MOLT-4
  GI50: 2.55 µM (inactive)
SW-620
  GI50: 2.24 µM (inactive)
ACHN
  GI50: 1.48 µM (inactive)

## COc1cccc(/C=N/NC(=O)CSCC(=O)N/N=C/c2cccc(OC)c2OC)c1OC
SN12C
  GI50: > 100 µM (inactive)
UACC-62
  GI50: > 100 µM (inactive)
SF-539
  GI50: > 100 µM (inactive)
MCF7
  GI50: > 100 µM (inactive)
MDA-MB-435
  GI50: > 100 µM (inactive)
OVCAR-3
  GI50: > 100 µM (inactive)
SR
  GI50: > 100 µM (inactive)
HCT-116
  GI50: > 100 µM (inactive)
HL-60
  GI50: > 100 µM (inactive)
EKVX
  GI50: > 100 µM (inactive)
KM12
  GI50: > 100 µM (inactive)
TK-10
  GI50: > 100 µM (inactive)
SF-268
  GI50: > 100 µM (inactive)
HOP-62
  GI50: > 100 µM (inactive)
NCI-H226
  GI50: > 100 µM (inactive)
HCT-15
  GI50: > 100 µM
IGROV-1
  GI50: > 100 µM (inactive)
MOLT-4
  GI50: > 100 µM (inactive)
SW-620
  GI50: > 100 µM (inactive)
ACHN
  GI50: > 100 µM (inactive)

## O=C1c2ccc3c4ccc5c6c(ccc(c7ccc(c2c37)C(=O)N1CCN1CCCCC1)c64)C(=O)N(CCN1CCCCC1)C5=O
SN12C
  GI50: > 100 µM (inactive)
UACC-62
  GI50: > 100 µM (inactive)
SF-539
  GI50: > 100 µM (inactive)
MCF7
  GI50: > 100 µM (inactive)
MDA-MB-435
  GI50: > 100 µM (inactive)
OVCAR-3
  GI50: > 100 µM (inactive)
SR
  GI50: > 100 µM (inactive)
HCT-116
  GI50: > 100 µM (inactive)
HL-60
  GI50: > 100 µM (inactive)
EKVX
  GI50: > 100 µM (inactive)
KM12
  GI50: > 100 µM (inactive)
TK-10
  GI50: > 100 µM (inactive)
SF-268
  GI50: > 100 µM (inactive)
HOP-62
  GI50: > 100 µM (inactive)
NCI-H226
  GI50: > 100 µM (inactive)
HCT-15
  GI50: > 100 µM
IGROV-1
  GI50: > 100 µM (inactive)
MOLT-4
  GI50: > 100 µM (inactive)
SW-620
  GI50: > 100 µM (inactive)
ACHN
  GI50: > 100 µM (inactive)

## N=C(N)NCCCC(NC(=O)OCCCCn1ccc(N)nc1=O)C(=O)O (stereo not given)
SN12C
  GI50: > 100 µM (inactive)
UACC-62
  GI50: > 100 µM (inactive)
SF-539
  GI50: > 100 µM (inactive)
MCF7
  GI50: > 100 µM (inactive)
MDA-MB-435
  GI50: > 100 µM (inactive)
OVCAR-3
  GI50: > 100 µM (inactive)
SR
  GI50: > 100 µM (inactive)
HCT-116
  GI50: > 100 µM (inactive)
HL-60
  GI50: > 100 µM (inactive)
EKVX
  GI50: > 100 µM (inactive)
KM12
  GI50: > 100 µM (inactive)
TK-10
  GI50: > 100 µM (inactive)
SF-268
  GI50: > 100 µM (inactive)
HOP-62
  GI50: > 100 µM (inactive)
NCI-H226
  GI50: 4.26 µM (inactive)
HCT-15
  GI50: > 100 µM
IGROV-1
  GI50: > 100 µM (inactive)
MOLT-4
  GI50: > 100 µM (inactive)
SW-620
  GI50: > 100 µM (inactive)
ACHN
  GI50: > 100 µM (inactive)

## CC(=O)O[C@H]1[C@@H](OC2CCCC2(c2ccccc2)c2ccccc2)O[N+]([O-])=C[C@@]12COCc1cc3c(cc12)OCO3 (stereo not given in full)
SN12C
  GI50: 3.78 µM (inactive)
UACC-62
  GI50: 8.39 µM (inactive)
SF-539
  GI50: 93.3 µM (inactive)
MCF7
  GI50: 6.38 µM (inactive)
MDA-MB-435
  GI50: 3.66 µM (inactive)
OVCAR-3
  GI50: 1.89 µM (inactive)
SR
  GI50: 2.32 µM (inactive)
HCT-116
  GI50: > 21.2 µM (inactive)
HL-60
  GI50: 3.24 µM (inactive)
EKVX
  GI50: 3.02 µM (inactive)
KM12
  GI50: 4.14 µM (inactive)
TK-10
  GI50: 7.85 µM (inactive)
SF-268
  GI50: 2.87 µM (inactive)
HOP-62
  GI50: 2.99 µM (inactive)
NCI-H226
  GI50: 4.79 µM (inactive)
HCT-15
  GI50: 6.37 µM
IGROV-1
  GI50: 3.54 µM (inactive)
MOLT-4
  GI50: 2.52 µM (inactive)
SW-620
  GI50: 7.03 µM (inactive)
ACHN
  GI50: 7.85 µM (inactive)
